Results on 52 compounds are retold here after patent US20240254089A1, “MODULATORS OF MAS-RELATED G-PROTEIN RECEPTOR X4 AND RELATED PRODUCTS AND METHODS” (ESCIENT PHARMACEUTICALS, INC., priority 2020, published 2024).

For one test, the target named is T1, human MRGPR X4 (Homo sapiens, UniProt Q96LA9).
T1 construct: expressed in transfected cells
T1 sequence (Q96LA9 whole entry): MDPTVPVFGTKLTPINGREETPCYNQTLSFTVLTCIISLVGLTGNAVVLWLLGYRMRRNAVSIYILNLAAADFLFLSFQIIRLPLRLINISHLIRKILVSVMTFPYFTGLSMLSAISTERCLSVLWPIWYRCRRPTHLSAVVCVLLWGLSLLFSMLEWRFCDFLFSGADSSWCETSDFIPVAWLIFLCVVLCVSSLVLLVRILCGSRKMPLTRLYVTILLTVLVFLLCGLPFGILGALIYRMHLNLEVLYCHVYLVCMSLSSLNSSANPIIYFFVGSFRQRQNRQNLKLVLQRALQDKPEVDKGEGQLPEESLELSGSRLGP
The test can be described thus: MRGPR X4 antagonist activity, IP-One Gq HTRF assay in stably transfected HEK cells. It counts as cell-based.
Conditions: not given
The gist of the method:
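Human MRGPR X4-expressing HEK cells, 20,000/well, were incubated with compound (10-point curve, 10 uM top, 1:3 dilutions) plus agonist (10 μM bilirubin, 20 μM deoxycholic acid or 100 μM conjugated bilirubin) in Tris/NaCl/LiCl buffer, pH 8, for 1 h at 37 °C, then 30 min at room temperature. IP-1 was read by HTRF, and IC50 was taken from the HTRF ratio.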
(In general: In TR-FRET formats the signal depends on donor and acceptor labels being close together.)
`CN1CCN(CCCn2nc(C(=O)NCCc3nnc4ccccn34)c3ccccc32)CC1` [Compound 444] displayed an IC50 above 2.5 µM.

As to `C#Cc1ccc(Cn2nc(C(=O)NCCc3nnc4ccccn34)c3ccccc32)cc1` [Compound 445, N-(2-([1,2,4]triazolo[4,3-a]pyridin-3-yl)ethyl)-1-(4-ethynylbenzyl)-1H-indazole-3-carboxamide], the IC50 lay in the range of 0.1 to 0.5 µM.

`N#Cc1cccc(Cn2nc(C(=O)NCCc3nnc4ccccn34)c3ccccc32)c1` [Compound 446] yielded an IC50 of 1 to 2.5 µM.

The compound `CCc1ccc(Cn2nc(C(=O)NCCc3nnc4ccccn34)c3ccccc32)cc1` [Compound 447] displayed an IC50 of 0.1 to 0.5 µM.

Regarding `COc1ccc(Cn2nc(C(=O)NCCc3nnc4ccccn34)c3ccccc32)nc1` [Compound 448], the IC50 was above 2.5 µM.

Turning to `Cc1c(Cn2nc(C(=O)NCCc3nnc4ccccn34)c3ccccc32)cccc1-c1ccccc1` [Compound 449], the IC50 lay within 0.1 to 0.5 µM.

The compound `CN(C)c1cccc(Cn2nc(C(=O)NCCc3nnc4ccccn34)c3ccccc32)c1` [Compound 451] gave an IC50 of 0.1 to 0.5 µM.

The compound `Cn1ncc2cc(Cn3nc(C(=O)NCCc4nnc5ccccn45)c4ccccc43)ccc21` [Compound 452] gave an IC50 of 0.501 to 1 µM.

As for `COc1ccc2ccccc2c1Cn1nc(C(=O)NCCc2nnc3ccccn23)c2ccccc21` [Compound 453], the IC50 was 1 to 2.5 µM.

Compound `O=C(NCCc1nnc2ccccn12)c1nn(Cc2nccc3ccccc23)c2ccccc12` [Compound 454] displayed an IC50 of 1 to 2.5 µM.

`O=C(NCCc1nnc2ccccn12)c1nn(Cc2cnc3ccccc3c2)c2ccccc12` [Compound 455] registered an IC50 of 0.1 to 0.5 µM.

`CC(C)c1cccc(Cn2nc(C(=O)NCCc3nnc4ccccn34)c3ccccc32)c1` [Compound 456] came in with an IC50 of 0.1 to 0.5 µM.

As for `Cc1cccc(C(F)(F)F)c1Cn1nc(C(=O)NCCc2nnc3ccccn23)c2ccccc21` [Compound 457], the IC50 was above 2.5 µM.

Compound `O=C(NCCc1nnc2ccccn12)c1nn(Cc2ccc3ncccc3c2)c2ccccc12` [Compound 458] had an IC50 of 0.501 to 1 µM.

For the compound `O=C(NCCc1nnc2ccccn12)c1nn(Cc2cccc(C(F)(F)F)c2F)c2ccccc12` [Compound 459], the IC50 fell in the range of 0.1 to 0.5 µM.

For the compound `Cn1ncc2cccc(Cn3nc(C(=O)NCCc4nnc5ccccn45)c4ccccc43)c21` [Compound 460], the IC50 was 0.501 to 1 µM.

`O=C(NCCc1nnc2ccccn12)c1nn(Cc2ccc(-n3cccn3)cc2)c2ccccc12` [Compound 461]: the IC50 is 1 to 2.5 µM.

On to `CC(C)(C#N)c1ccc(Cn2nc(C(=O)NCCc3nnc4ccccn34)c3ccccc32)cc1` [Compound 462], for which the IC50 fell in the range of 1 to 2.5 µM.

On to `O=C(NCCc1nnc2ccccn12)c1nn(Cc2ccc(OC(F)F)cc2)c2ccccc12` [Compound 463], for which the IC50 was below 0.1 µM.

Take `N#Cc1ccc(Cn2nc(C(=O)NCCc3nnc4ccccn34)c3ccccc32)cn1` [Compound 464]: the IC50 was 1 to 2.5 µM.

Regarding `O=C(NCCc1nnc2ccccn12)c1nn(Cn2nnc3ccccc32)c2ccccc12` [Compound 465], the IC50 fell in the range of 0.1 to 0.5 µM.

Consider `N#Cc1ccc(Cn2nc(C(=O)NCCc3nnc4ccccn34)c3ccccc32)s1` [Compound 466], for which the IC50 is 0.1 to 0.5 µM.

As for `Cn1cc(C(=O)Cn2nc(C(=O)NCCc3nnc4ccccn34)c3ccccc32)cn1` [Compound 467], the IC50 was 0.1 to 0.5 µM.

`O=C(NCCc1nnc2ccccn12)c1nn(CC(=O)C2CCCCC2)c2ccccc12` [Compound 469] registered an IC50 of 1 to 2.5 µM.

The compound `COc1ccc(Cn2nc(C(=O)NCCc3nnc4ccccn34)c3ccccc32)c2ccccc12` [Compound 473] came in with an IC50 of 0.1 to 0.5 µM.

In turn, `O=C(NCCc1nnc2ccccn12)c1nn(Cc2cccc3ccccc23)c2ccccc12` [Compound 474] showed an IC50 of 0.1 to 0.5 µM.

In turn, `O=C(NCc1cccc2nc[nH]c12)c1nn(Cc2ccc(Cl)cc2)c2ccccc12` [Compound 475] displayed an IC50 above 2.5 µM.

The compound `O=C(NCCc1nnc2ccccn12)c1nn(Cc2ccn3ccnc3c2)c2ccccc12` [Compound 476] showed an IC50 above 2.5 µM.

`O=C(NCCc1nnc2ccccn12)c1nn(Cc2ccc3nsnc3c2)c2ccccc12` [Compound 477] registered an IC50 below 0.1 µM.

As for `O=C(NCCc1nnc2ccccn12)c1nn(Cc2ccc(-c3cnco3)cc2)c2ccccc12` [Compound 478], the IC50 lay within 0.501 to 1 µM.

Regarding `Cc1cc(C)c(Cn2nc(C(=O)NCCc3nnc4ccccn34)c3ccccc32)c(C)c1` [Compound 479], the IC50 was 0.1 to 0.5 µM.

With `CCn1c(Cn2nc(C(=O)NCCc3nnc4ccccn34)c3ccccc32)nc2ccccc21` [Compound 480], the IC50 was in the range of 0.501 to 1 µM.

`O=C(Cn1nc(C(=O)NCCc2nnc3ccccn23)c2ccccc21)c1ccc(Cl)cc1` [Compound 481] returned an IC50 of 0.501 to 1 µM.

`Cc1ccc(C(=O)Cn2nc(C(=O)NCCc3nnc4ccccn34)c3ccccc32)c(C)c1` [Compound 483] showed an IC50 of 0.501 to 1 µM.

`O=C(NCCc1nnc2ccccn12)c1nn(CCOc2ccc(Cl)cc2)c2ccccc12` [Compound 485] had an IC50 of 0.501 to 1 µM.

Consider `COc1ccccc1OCCn1nc(C(=O)NCCc2nnc3ccccn23)c2ccccc21` [Compound 486], for which the IC50 lay in the range of 0.501 to 1 µM.

On to `O=C(NCCc1nnc2ccccn12)c1nn(CCCC2CCCC2)c2ccccc12` [Compound 487], for which the IC50 fell in the range of 0.1 to 0.5 µM.

In turn, `O=C(NCCc1nnc2ccccn12)c1nn(CC2CCCCC2)c2ccccc12` [Compound 488] gave an IC50 of 0.501 to 1 µM.

`O=C(NCCc1nnc2ccccn12)c1nn(CC2CCC(F)(F)CC2)c2ccccc12` [Compound 489] returned an IC50 of 0.501 to 1 µM.

As for `O=C(NCCc1nnc2ccccn12)c1nn(Cc2ccc(C3CC3)cc2)c2ccccc12` [Compound 490], the IC50 was below 0.1 µM.

In turn, `O=C(NCCc1nnc2ccccn12)c1nn(Cc2cccc3c2CCO3)c2ccccc12` [Compound 491] gave an IC50 of 0.1 to 0.5 µM.

Take `CN(C)c1cccc(Cn2nc(C(=O)NCCc3nnc4ccccn34)c3ccccc32)n1` [Compound 492]: the IC50 was above 2.5 µM.

In turn, `O=C(NCCc1nnc2ccccn12)c1nn(Cc2ccc3occc3c2)c2ccccc12` [Compound 493] came in with an IC50 below 0.1 µM.

With `O=C(NCCc1nnc2ccccn12)c1nn(Cc2ccc3c(c2)CCC3)c2ccccc12` [Compound 494], the IC50 was below 0.1 µM.

Staying with this test, now noted: versus 20 μM deoxycholic acid agonist; HEK cells expressing human MRGPR X4; read-out: MRGPRX4 Antagonist Activity.
Regarding `O=C(CCn1nc(C(=O)NCCc2nnc3ccccn23)c2ccccc21)c1ccc(F)cc1` [Compound 443], the IC50 was above 2.5 µM.

Consider `Cc1nccn1-c1ccc(Cn2nc(C(=O)NCCc3nnc4ccccn34)c3ccccc32)cc1` [Compound 450], for which the IC50 is above 2.5 µM.

Consider `Cc1ccc(C(=O)Cn2nc(C(=O)NCCc3nnc4ccccn34)c3ccccc32)cc1` [Compound 468], for which the IC50 lay within 1 to 2.5 µM.

On to `O=C(NCCc1nnc2ccccn12)c1nn(CCCOc2ccc(Cl)cc2)c2ccccc12` [Compound 470], for which the IC50 was above 2.5 µM.

As for `O=C(NCCc1nnc2ccccn12)c1nn(CCc2ccc(F)cc2F)c2ccccc12` [Compound 471], the IC50 is above 2.5 µM.

For `O=C(Cn1nc(C(=O)NCCc2nnc3ccccn23)c2ccccc21)NCC1CCCCC1` [Compound 472], the IC50 is above 2.5 µM.

Consider `O=C(Cn1nc(C(=O)NCCc2nnc3ccccn23)c2ccccc21)c1ccc(Cl)c(Cl)c1` [Compound 482], for which the IC50 was below 0.1 µM.

Turning to `COc1ccc(C(=O)Cn2nc(C(=O)NCCc3nnc4ccccn34)c3ccccc32)cc1` [Compound 484], the IC50 is 1 to 2.5 µM.
